Broadly, the IC50 is the concentration at which inhibition is half-maximal. Read a low IC50 as greater potency in that assay.

The results in this text go back to BindingDB's records for PubMed 35429911 (Univ. Lille, 2022).

This assay concerns the target Programmed cell death 1 ligand/protein 1 (Homo sapiens, UniProt Q9NZQ7+Q15116). Put plainly: Inhibition of human PD-1/PD-L1 interaction in CHO-K1 cells transfected with PD-1-YFP/SHP-2-CFP and measured by FRET assay.

Sequence of Programmed cell death 1 ligand/protein 1 (Q9NZQ7 whole entry): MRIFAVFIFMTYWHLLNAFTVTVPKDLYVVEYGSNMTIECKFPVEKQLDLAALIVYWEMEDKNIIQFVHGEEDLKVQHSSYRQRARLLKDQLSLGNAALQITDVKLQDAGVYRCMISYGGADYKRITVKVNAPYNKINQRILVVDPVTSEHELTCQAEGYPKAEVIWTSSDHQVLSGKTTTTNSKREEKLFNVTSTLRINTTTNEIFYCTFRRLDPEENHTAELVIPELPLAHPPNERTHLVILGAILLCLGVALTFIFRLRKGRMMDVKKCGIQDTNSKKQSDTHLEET
Sequence of Programmed cell death 1 ligand/protein 1 (Q15116 whole entry): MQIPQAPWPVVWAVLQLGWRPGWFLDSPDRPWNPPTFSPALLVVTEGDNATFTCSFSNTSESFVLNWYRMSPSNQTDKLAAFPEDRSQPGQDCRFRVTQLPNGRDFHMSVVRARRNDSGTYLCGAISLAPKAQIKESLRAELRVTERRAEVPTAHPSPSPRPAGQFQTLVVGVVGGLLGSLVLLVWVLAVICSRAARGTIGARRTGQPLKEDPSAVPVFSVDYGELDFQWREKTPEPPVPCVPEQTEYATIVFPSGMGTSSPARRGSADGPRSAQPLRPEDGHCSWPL

In turn, `COc1ccc(C2=NN(c3ccccn3)C(=O)C2)cc1` came in with an IC50 of 17 nM.
On to `COc1ccccc1C1=NN(c2ccccn2)C(=O)C1`, for which the half-maximal inhibitory concentration (IC50) turned out to be 7 nM.
